Test system: pancreatic patient-derived tumor xenografts (PDX models)
Experiment: In vivo antitumor activity in female BALB/c nude mice bearing patient-derived tumor xenografts (PDXs)
Settings: 60 mg/kg, Bid, po, 21 days, 3 days on 4 days off
Excerpt: In Vivo Antitumor Activity of Compound 1 Hemihydrate in Female BALB/c Nude Mice Bearing Patient-Derived Tumor Xenografts (PDXs)
Tumor fragments from seed mice inoculated with selected PDX tumors were harvested and used for inoculation into BALB/c nude mice. Each mouse was inoculated subcutaneously at the right flank with one tumor fragment (2-3 mm in diameter). The treatments were started when mean tumor size reached approximately 200-250 mm^3. For each model, 6 tumor bearing mice were randomized into 2 groups. Mice were dosed orally with either vehicle (0.5% w:v methyl cellulose) or Compound 1 hemihydrate Form A crystal (60 mg/kg, Bid, po, 21 days, 3 days on 4 days off).
The % tumor growth inhibition (TGI) was taken as endpoints to determine when the tumor growth can be delayed or mice can be cured. Tumor sizes were measured twice weekly in two dimensions using a caliper, and the volume is expressed in mm^3 using the formula: V=0.5a×b^2,
where a and b are the long and short diameters of the tumor, respectively. The % TGI was calculated using the following formula: % TGI=(1−(Ti-T0)/(Vi-V0))*100 […]

Cc1n[nH]cc1-c1cc2nc([C@@H]3CC4CCN3CC4)[nH]c(=O)c2s1 [Compound 1 hemihydrate, 2-[(2S)-1-azabicyclo[2.2.2]oct-2-yl]-6-(3-methyl-1H-pyrazol-4-yl)thieno[3,2-d]pyrimidin-4(3H)-one]
tumor growth inhibition (% TGI) (22 out of 25 pancreatic PDX models, vs vehicle (0.5% methyl cellulose)): > 60% | sensitivity of KRAS-mutant pancreatic tumors compared to KRAS-wild type ones (correlative study on % TGI, FIG. 1) (pancreatic PDX models, Student's t-test KRAS-mutant vs KRAS-wild): more sensitive

— patent US11155879B2, “Method of predicting effects of CDC7 inhibitor” (TAKEDA PHARMACEUTICAL COMPANY LIMITED, priority 2017, dated 2021)
